The values below come from US20240271329A1, “CYCLIC COMPOUND LIBRARY AND CONSTRUCTION METHOD THEREFOR” (Yafei Shanghai Biology Medicine Science & Technology Co. …, priority 2021, published 2024).

The structures appear in SMILES notation. Like-named read-outs stand apart in the source and are kept apart here. Square brackets hold non-standard residues; d marks the D form. Peptide text beside a SMILES is read from it. * marks the point of attachment. ξ: configuration not given here. Phe(3-CF3) = N[C@@H](Cc1cccc(C(F)(F)F)c1)C(=O)O; NMeF = CN[C@@H](Cc1ccccc1)C(=O)O; 3Pal = N[C@@H](Cc1cccnc1)C(=O)O; Cha = N[C@@H](CC1CCCCC1)C(=O)O; Cit = NC(=O)NCCC[C@H](N)C(=O)O; NMeL = CN[C@@H](CC(C)C)C(=O)O; ξP = O=C(O)C1CCCN1; OtBu = CC(C)(C)O*; Sar = CNCC(=O)O

The series in a line: MDCK monolayer membrane permeability (A→B transport). Particulars: dog. Format: in vitro ADME, canine. As for the experimental part:
In order to determine the cyclic peptide compounds 9-12 obtained in the above examples, an MDCK model was established to determine their membrane permeability. The MDCK cell line was sourced from Madin Darby canine epithelial cell lines, and the monolayer MDCK cell was the best cytological model to study the in vivo processes such as absorption and reabsorption of drugs in renal tubules. The MDCK cells in a disperse culture flask were digested, and seeded to Millicell CPI at 5×10^4/cm^2; 400 μL of MEM culture solution containing 10% FBS was added to a side A (a luminal side, Apical), and 800 μL of the MEM culture solution was added to a side B (a basolateral side); and the mixture was incubated in an incubator containing 5% CO2 at 37° C. The solution was changed every day. It should be noted that a pipette should not to touch a cell membrane, thereby avoiding damaging the cell layer; and the transmembrane resistance (i.e., trans-epithelial electrical resistance, TEER) was regularly measured by using Millicell2ERS to test the integrity of the cell monolayer.
The A→B transport from the apical end (A) to the basolateral end (B) of the monolayer membrane of the MDCK cells was observed. For the determination of A→B, 450 μL of a drug or a positive control HEPES solution was added to the apical end of the membrane as a feeding cell, and 1300 μL of a blank HEPES solution was added to the basolateral end as a receiving cell. A Transwell plate was placed on a constant-temperature shaker at 37° C. and shaken; after 90 min, a sample solution was extracted respectively from the feeding cell and the receiving cell; acetonitrile was added to precipitate proteins, and then vortexing, centrifuging and transferring were carried out; and the permeance was measured by LC/MS. Based on this permeance, a membrane permeance coefficient (Papp, i.e., apparent permeability, which was a specific evaluation parameter) was calculated. The Papp greater than 1×10^−6 cm/s indicated the absorption of more than 60% of a drug, and the Papp greater than 10×10^−6 cm/s indicated the absorption of more than 80% of drug molecules.

Where [1] appears, read: MDCK A→B, not, read-out: Papp values.
The mark [2] stands for this setting: apical to basolateral, MDCK monolayer, 37° C., 90 min, LC/MS, read-out: MDCK Papp(A − B).

Regarding `CC(C)C[C@@H]1NC(=O)CNC(=O)[C@H](CC(N)=O)NC(=O)C2CCCN2C(=O)[C@H]2CCCN2C(=O)[C@H](CCC(=O)OC(C)(C)C)NC(=O)CN(C)C(=O)[C@H](Cc2cccc(C(F)(F)F)c2)NC(=O)[C@H](CC(C)C)N(C)C(=O)[C@H](Cc2ccccc2)N(C)C1=O` (stereo partly drawn) [Compound 9] (cyclo(E(OtBu)[dP][ξP]NGL[NMeF][NMeL][Phe(3-CF3)][Sar])), the Papp A→B at 90 min runs as follows: under setting [1], greater than 10 ×10⁻⁶ cm/s; under setting [2], 11.3 ×10⁻⁶ cm/s.
Consider `CC(C)C[C@@H]1NC(=O)CNC(=O)[C@H](CC(N)=O)NC(=O)C2CCCN2C(=O)[C@H]2CCCN2C(=O)[C@H](CCC(=O)OC(C)(C)C)NC(=O)CN(C)C(=O)[C@H](Cc2cccnc2)NC(=O)[C@H](CC(C)C)N(C)C(=O)[C@H](Cc2ccccc2)N(C)C1=O` (stereo partly drawn) [Compound 10] (cyclo([3Pal][Sar]E(OtBu)[dP][ξP]NGL[NMeF][NMeL])), for which the Papp A→B at 90 min under setting [2] was 4.8 ×10⁻⁶ cm/s.
Still for that read-out and setting: for `CC(C)C[C@@H]1NC(=O)CNC(=O)[C@H](CC(N)=O)NC(=O)C2CCCN2C(=O)[C@H]2CCCN2C(=O)[C@H](CCC(=O)OC(C)(C)C)NC(=O)CN(C)C(=O)[C@H](CCCNC(N)=O)NC(=O)[C@H](CC(C)C)N(C)C(=O)[C@H](Cc2ccccc2)N(C)C1=O` (stereo partly drawn) [Compound 12] (cyclo([Cit][Sar]E(OtBu)[dP][ξP]NGL[NMeF][NMeL])) the value was 0.9 ×10⁻⁶ cm/s.
`CC(C)C[C@@H]1NC(=O)CNC(=O)[C@H](CC(N)=O)NC(=O)C2CCCN2C(=O)[C@H]2CCCN2C(=O)[C@H](CCC(=O)OC(C)(C)C)NC(=O)CN(C)C(=O)[C@H](CC2CCCCC2)NC(=O)[C@H](CC(C)C)N(C)C(=O)[C@H](Cc2ccccc2)N(C)C1=O` (stereo partly drawn) [Compound 11] (cyclo([Cha][Sar]E(OtBu)[dP][ξP]NGL[NMeF][NMeL])): the Papp A→B at 90 min was greater than 10 ×10⁻⁶ cm/s under setting [1] and 16.2 ×10⁻⁶ cm/s under setting [2].
